According to patent publication US8283373B2, “Inhibitors of cytosolic phospholipase A2” (Pfizer Inc., priority 2005, dated 2012):
Entries after “also recorded” stand apart in the source; their conditions may differ.

Key:
carrageenan paw edema = test: Carrageenan paw edema assay; format: in vivo; conditions: oral
Experimental: The carrageenan paw edema assay is an acute model of inflammation that is particularly useful for in vivo assessment of compounds that effect the production of prostaglandins. In particular, NSAIDs inhibit edema in a characteristic dose response fashion in this model, and the activity of NSAIDs in this model correlates well with the activity observed in man (See Mukherjee A, et al., Inflamm Res. 1996; 45:531-540). Therefore, the compound of Example 10 was tested in the carrageenan paw edema model.

[1] = tested on: OVA-induced pulmonary inflammation; test: Rat antigen induced pulmonary inflammation model; format: in vivo
Experimental: The efficacy of the compound of Example 10 was evaluated in a Brown Norway rat model in which ovalbumin (OVA)-sensitized animals were challenged via the airways with an aerosol of ovalbumin (OVA) on days 1 and 2. OVA sensitized rats were challenged via aerosol on day 1 and day 2. The compound of Example 10 was administered at 30 mg/kg PO BID 1 hour prior to challenge and 10 hours after challenge over the 2 day challenge period. Dexamethasone was administered at 3 mg/kg IP 1 hour prior to challenge on day 1 and day 2. Animals were sacrificed on day 3 and bronchoalveolar cavities ravaged for analysis of cellular influx.

[2] = tested on: experimental autoimmune encephalomyelitis (EAE); test: Experimental autoimmune encephalomyelitis (EAE) model of multiple sclerosis; format: in vivo, mouse
Experimental: Six groups of B6 mice were immunized with MOG/CFA and injected with pertussis toxin to induce experimental autoimmune encephalomyelitis (EAE), an animal model of Multiple sclerosis. Three groups of mice were treated with vehicle, 4-{3-[1-benzhydryl-5-chloro-2-(2-{[(2,6-dimethylbenzyl)sulfonyl]amino}ethyl)-1H-indol-3-yl]propyl}benzoic acid (Compound A), or 4-{2-[1-benzhydryl-5-chloro-2-(2-{[(3,4-dichlorobenzyl)sulfonyl]amino}-ethyl)-1H-indol-3-yl]ethoxy}benzoic acid (Compound B) from the day of Immunization (orally, 100 mg/kg, twice/day). Another three groups of mice were treated with vehicle, Compound A or Compound B starting on the day of EAE onset (day 15) (orally, 100 mg/kg, twice/day). […] The results are shown in the Table below, wherein mean clinical score is a mean of clinical evaluation of each animal for that particular day.
Animals are Scored as Follows:
• 0—no clinical signs of EAE (no paralysis) • 1—paralysis of tail • 2—paralysis of tail and partial hind leg paralysis • 3—paralysis of tail and complete hind leg paralysis • 4—paralysis of tail, complete hind leg paralysis and a partial front leg paralysis • 5—moribund animal (all four limbs paralyzed, lack of responsiveness, these mice were immediately euthanized).
In addition, the compounds of Examples 14 and 25 were also found to be efficacious in the mouse experimental autoimmune encephalomyelitis (EAE) model of multiple sclerosis. As shown by the data in the Table below, these compounds led to a delayed onset of disease and reduced severity of disease when administered orally in doses as low as 2.5 mg/kg.

## O=C(O)c1ccc(CCCc2c(CCNS(=O)(=O)Cc3ccccc3C(F)(F)F)n(C(c3ccccc3)c3ccccc3)c3ccc(Cl)cc23)cc1 [Example 10, 4-(3-{5-chloro-1-(diphenylmethyl)-2-[2-({[2-(trifluoromethyl)benzyl]sulfonyl}amino)ethyl]-1H-indol-3-yl}propyl)benzoic acid]
Carrageenan paw edema; 2 hours before carrageenan, doses as low as 3 mg/kg
  Paw edema: statistically significantly decreased; also recorded: significantly inhibited edema
Carrageenan paw edema; based on a maximal inhibition of 50%, read-out: approximate ED50 of paw edema inhibition
  ED50: ~7.5 mg/kg
[1]; 30 mg/kg PO BID
  influx of lymphocytes or neutrophils: no significant effect
  total numbers of inflammatory cells within the BALF: statistically significantly attenuated
[1]; 30 mg/kg PO BID over 2 day challenge, 8 out of 8 independent studies
  Bronchoalveolar lavage fluid (BALF) eosinophil influx: statistically significantly inhibited

## Cc1cccc(C)c1CS(=O)(=O)NCCc1c(CCCc2ccc(C(=O)O)cc2)c2cc(Cl)ccc2n1C(c1ccccc1)c1ccccc1 [Compound A, 4-{3-[1-benzhydryl-5-chloro-2-(2-{[(2,6-dimethylbenzyl)sulfonyl]amino}ethyl)-1H-indol-3-yl]propyl}benzoic acid]
[2]; 100 mg/kg orally twice/day from EAE onset (day 15), day 11 after immunization
  mean clinical score: 0
[2]; 100 mg/kg orally twice/day from EAE onset (day 15), day 12 after immunization
  mean clinical score: 0
[2]; 100 mg/kg orally twice/day from EAE onset (day 15), day 13 after immunization
  mean clinical score: 0
[2]; 100 mg/kg orally twice/day from EAE onset (day 15), day 14 after immunization
  mean clinical score: 0
[2]; 100 mg/kg orally twice/day from EAE onset (day 15), day 15 after immunization
  mean clinical score: 0.33
[2]; 100 mg/kg orally twice/day from EAE onset (day 15), day 16 after immunization
  mean clinical score: 0.60
[2]; 100 mg/kg orally twice/day from EAE onset (day 15), day 17 after immunization
  mean clinical score: 0.80
[2]; 100 mg/kg orally twice/day from EAE onset (day 15), day 18 after immunization
  mean clinical score: 1.03
[2]; 100 mg/kg orally twice/day from EAE onset (day 15), day 19 after immunization
  mean clinical score: 1.13
[2]; 100 mg/kg orally twice/day from EAE onset (day 15), day 20 after immunization
  mean clinical score: 1.50
[2]; 100 mg/kg orally twice/day from EAE onset (day 15), day 21 after immunization
  mean clinical score: 1.57
[2]; 100 mg/kg orally twice/day from EAE onset (day 15), day 22 after immunization
  mean clinical score: 1.60
[2]; 100 mg/kg orally twice/day from EAE onset (day 15), day 23 after immunization
  mean clinical score: 1.37
[2]; 100 mg/kg orally twice/day from EAE onset (day 15), day 24 after immunization
  mean clinical score: 1.43
[2]; 100 mg/kg orally twice/day from EAE onset (day 15), day 25 after immunization
  mean clinical score: 1.23
[2]; 100 mg/kg orally twice/day from EAE onset (day 15), day 26 after immunization
  mean clinical score: 0.87
[2]; 100 mg/kg orally twice/day from EAE onset (day 15), day 27 after immunization
  mean clinical score: 0.87
[2]; 100 mg/kg orally twice/day from day of immunization (Day 1), day 11 after immunization
  mean clinical score: 0
[2]; 100 mg/kg orally twice/day from day of immunization (Day 1), day 12 after immunization
  mean clinical score: 0
[2]; 100 mg/kg orally twice/day from day of immunization (Day 1), day 13 after immunization
  mean clinical score: 0
[2]; 100 mg/kg orally twice/day from day of immunization (Day 1), day 14 after immunization
  mean clinical score: 0
[2]; 100 mg/kg orally twice/day from day of immunization (Day 1), day 15 after immunization
  mean clinical score: 0
[2]; 100 mg/kg orally twice/day from day of immunization (Day 1), day 16 after immunization
  mean clinical score: 0
[2]; 100 mg/kg orally twice/day from day of immunization (Day 1), day 17 after immunization
  mean clinical score: 0
[2]; 100 mg/kg orally twice/day from day of immunization (Day 1), day 18 after immunization
  mean clinical score: 0
[2]; 100 mg/kg orally twice/day from day of immunization (Day 1), day 19 after immunization
  mean clinical score: 0
[2]; 100 mg/kg orally twice/day from day of immunization (Day 1), day 20 after immunization
  mean clinical score: 0
[2]; 100 mg/kg orally twice/day from day of immunization (Day 1), day 21 after immunization
  mean clinical score: 0.06
[2]; 100 mg/kg orally twice/day from day of immunization (Day 1), day 22 after immunization
  mean clinical score: 0.09
[2]; 100 mg/kg orally twice/day from day of immunization (Day 1), day 23 after immunization
  mean clinical score: 0.16
[2]; 100 mg/kg orally twice/day from day of immunization (Day 1), day 24 after immunization
  mean clinical score: 0.19
[2]; 100 mg/kg orally twice/day from day of immunization (Day 1), day 25 after immunization
  mean clinical score: 0.25
[2]; 100 mg/kg orally twice/day from day of immunization (Day 1), day 26 after immunization
  mean clinical score: 0.28
[2]; 100 mg/kg orally twice/day from day of immunization (Day 1), day 27 after immunization
  mean clinical score: 0.38
[2]; administered from the time of immunization, or in mice with or close to EAE
  prevention of EAE / reduction of clinical severity: can prevent EAE
